PMC12136037, “Type II kinase inhibitors that target Parkinson’s disease–associated LRRK2” (Science Advances, 2025)

Experiments:
Assay in all cases: 33PanQinase kinome-wide selectivity profile (Reaction Biology)
Assay type in all cases: biochemical
[1] = target: T1, 350 wild-type kinases (Homo sapiens, UniProt O00238); conditions: kinase BMPR1B, ATP 3 µM, singlicate
T1 construct: purchased Reaction Biology (assay service)
Protocol: (§1) Compound RN341 was tested at two concentrations of 1 and 10 μM against a panel of 350 wild-type kinases in the ^33PanQinase assay. The assay was performed by Reaction Biology (www.reactionbiology.com/services/kinase-assays/kinase-panel-screening/).

[2] = target: T2, 350 wild-type kinases (Homo sapiens, UniProt O00311); conditions: kinase CDC7/DBF4, ATP 0,1 µM, singlicate
T2 construct: purchased Reaction Biology (assay service)
Protocol: as §1

[3] = target: T3, 350 wild-type kinases (Homo sapiens, UniProt O14757); conditions: kinase CHK1, ATP 1 µM, singlicate
T3 construct: purchased Reaction Biology (assay service)
Protocol: as §1

[4] = target: T4, 350 wild-type kinases (Homo sapiens, UniProt O60285); conditions: kinase ARK5, ATP 3 µM, singlicate
T4 construct: purchased Reaction Biology (assay service)
T4 sequence (O60285 whole entry): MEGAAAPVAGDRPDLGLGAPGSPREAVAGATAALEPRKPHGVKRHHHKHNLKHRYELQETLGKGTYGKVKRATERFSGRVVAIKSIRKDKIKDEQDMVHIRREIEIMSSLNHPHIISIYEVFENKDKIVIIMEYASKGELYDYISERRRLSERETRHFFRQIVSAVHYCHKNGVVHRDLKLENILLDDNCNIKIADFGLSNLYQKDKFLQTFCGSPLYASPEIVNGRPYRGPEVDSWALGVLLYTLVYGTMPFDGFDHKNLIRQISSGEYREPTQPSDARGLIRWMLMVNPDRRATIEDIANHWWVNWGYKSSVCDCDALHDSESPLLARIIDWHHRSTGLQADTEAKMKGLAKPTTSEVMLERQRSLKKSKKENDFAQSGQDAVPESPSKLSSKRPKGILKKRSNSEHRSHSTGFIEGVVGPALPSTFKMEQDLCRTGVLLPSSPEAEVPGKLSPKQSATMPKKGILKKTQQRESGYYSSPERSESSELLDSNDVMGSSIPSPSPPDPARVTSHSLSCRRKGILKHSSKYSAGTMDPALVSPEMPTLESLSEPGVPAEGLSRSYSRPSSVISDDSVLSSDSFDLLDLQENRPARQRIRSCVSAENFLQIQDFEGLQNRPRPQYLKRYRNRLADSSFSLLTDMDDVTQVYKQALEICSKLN
Protocol: as §1

[5] = target: T5, 350 wild-type kinases (Homo sapiens, UniProt P27037); conditions: kinase ACVR2A, ATP 3 µM, singlicate
T5 construct: purchased Reaction Biology (assay service)
Protocol: as §1

[6] = target: T6, 350 wild-type kinases (Homo sapiens, UniProt P30530); conditions: kinase AXL, ATP 0,3 µM, singlicate
T6 construct: purchased Reaction Biology (assay service)
Protocol: as §1

[7] = target: T7, 350 wild-type kinases (Homo sapiens, UniProt P31749); conditions: kinase AKT1, ATP 1 µM, singlicate
T7 construct: purchased Reaction Biology (assay service)
Protocol: as §1

[8] = target: T8, 350 wild-type kinases (Homo sapiens, UniProt P31751); conditions: kinase AKT2, ATP 10 µM, singlicate
T8 construct: purchased Reaction Biology (assay service)
T8 sequence (P31751 whole entry): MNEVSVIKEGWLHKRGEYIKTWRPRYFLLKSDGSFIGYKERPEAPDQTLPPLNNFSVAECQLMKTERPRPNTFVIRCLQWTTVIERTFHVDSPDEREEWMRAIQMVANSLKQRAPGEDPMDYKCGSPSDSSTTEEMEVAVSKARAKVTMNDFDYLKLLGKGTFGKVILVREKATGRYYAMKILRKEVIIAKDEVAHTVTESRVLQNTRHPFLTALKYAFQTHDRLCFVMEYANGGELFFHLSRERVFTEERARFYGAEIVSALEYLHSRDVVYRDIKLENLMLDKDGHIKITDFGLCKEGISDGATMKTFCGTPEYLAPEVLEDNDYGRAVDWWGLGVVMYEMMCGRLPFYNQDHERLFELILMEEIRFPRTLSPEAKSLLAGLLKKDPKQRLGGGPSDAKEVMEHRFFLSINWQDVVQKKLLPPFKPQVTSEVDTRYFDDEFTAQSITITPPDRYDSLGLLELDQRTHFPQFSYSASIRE
Protocol: as §1

[9] = target: T9, 350 wild-type kinases (Homo sapiens, UniProt P41279); conditions: kinase COT, ATP 0,3 µM, singlicate
T9 construct: purchased Reaction Biology (assay service)
Protocol: as §1

[10] = target: T10, 350 wild-type kinases (Homo sapiens, UniProt P48729); conditions: kinase CK1alpha1, ATP 0,3 µM, singlicate
T10 construct: purchased Reaction Biology (assay service)
T10 sequence (P48729 whole entry): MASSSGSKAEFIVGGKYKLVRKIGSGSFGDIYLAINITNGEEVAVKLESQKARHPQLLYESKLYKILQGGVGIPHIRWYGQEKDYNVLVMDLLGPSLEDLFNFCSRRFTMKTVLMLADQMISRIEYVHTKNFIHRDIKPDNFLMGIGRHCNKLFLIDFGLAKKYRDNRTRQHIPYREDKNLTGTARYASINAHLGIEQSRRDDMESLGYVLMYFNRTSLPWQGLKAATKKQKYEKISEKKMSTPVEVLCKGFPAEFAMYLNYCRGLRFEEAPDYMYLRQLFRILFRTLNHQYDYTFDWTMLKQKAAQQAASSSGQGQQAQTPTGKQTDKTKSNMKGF
Protocol: as §1

[11] = target: T11, 350 wild-type kinases (Homo sapiens, UniProt P49759); conditions: kinase CLK1, ATP 0,3 µM, singlicate
T11 construct: purchased Reaction Biology (assay service)
Protocol: as §1

[12] = target: T12, 350 wild-type kinases (Homo sapiens, UniProt P78368); conditions: kinase CK1gamma2, ATP 0,1 µM, singlicate
T12 construct: purchased Reaction Biology (assay service)
Protocol: as §1

[13] = target: T13, 350 wild-type kinases (Homo sapiens, UniProt Q00526); conditions: ATP 3 µM, singlicate; for Residual activity (% of control), CDK3/CycC: kinase CDK3/CycC; for Residual activity (% of control), CDK3/CycE1: kinase CDK3/CycE1
T13 construct: purchased Reaction Biology (assay service)
T13 sequence (Q00526 whole entry): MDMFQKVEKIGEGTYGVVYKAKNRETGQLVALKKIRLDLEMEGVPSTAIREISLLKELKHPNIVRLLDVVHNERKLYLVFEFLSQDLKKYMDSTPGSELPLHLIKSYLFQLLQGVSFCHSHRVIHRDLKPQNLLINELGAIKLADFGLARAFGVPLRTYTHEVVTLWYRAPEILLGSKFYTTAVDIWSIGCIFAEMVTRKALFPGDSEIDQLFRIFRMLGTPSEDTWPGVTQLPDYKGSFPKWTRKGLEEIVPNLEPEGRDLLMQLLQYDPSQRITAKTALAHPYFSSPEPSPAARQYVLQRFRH
Protocol: as §1

[14] = target: T14, 350 wild-type kinases (Homo sapiens, UniProt Q06187); conditions: kinase BTK, ATP 3 µM, singlicate
T14 construct: purchased Reaction Biology (assay service)
T14 sequence (Q06187 whole entry): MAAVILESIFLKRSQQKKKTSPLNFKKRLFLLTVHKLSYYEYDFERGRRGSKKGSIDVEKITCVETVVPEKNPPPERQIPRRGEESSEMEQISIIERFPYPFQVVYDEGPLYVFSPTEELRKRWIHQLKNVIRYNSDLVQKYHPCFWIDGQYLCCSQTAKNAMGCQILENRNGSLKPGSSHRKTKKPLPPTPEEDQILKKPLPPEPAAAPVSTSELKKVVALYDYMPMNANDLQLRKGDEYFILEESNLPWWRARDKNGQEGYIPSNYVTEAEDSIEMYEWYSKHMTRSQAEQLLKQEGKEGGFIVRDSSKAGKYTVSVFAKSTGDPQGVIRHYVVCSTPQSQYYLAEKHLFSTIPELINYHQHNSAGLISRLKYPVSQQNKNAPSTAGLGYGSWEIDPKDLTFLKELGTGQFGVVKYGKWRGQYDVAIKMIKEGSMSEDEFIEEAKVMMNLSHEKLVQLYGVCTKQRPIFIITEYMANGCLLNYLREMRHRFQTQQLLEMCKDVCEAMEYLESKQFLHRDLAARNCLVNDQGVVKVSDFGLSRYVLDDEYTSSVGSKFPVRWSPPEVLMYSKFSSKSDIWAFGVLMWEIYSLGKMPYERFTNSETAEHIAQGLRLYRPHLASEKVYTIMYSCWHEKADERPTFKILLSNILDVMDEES
Protocol: as §1

[15] = target: T15, 350 wild-type kinases (Homo sapiens, UniProt Q07002); conditions: kinase CDK18/CycY, ATP 1 µM, singlicate
T15 construct: purchased Reaction Biology (assay service)
Protocol: as §1

[16] = target: T16, 350 wild-type kinases (Homo sapiens, UniProt Q13555); conditions: kinase CAMK2G, ATP 1 µM, singlicate
T16 construct: purchased Reaction Biology (assay service)
Protocol: as §1

[17] = target: T17, 350 wild-type kinases (Homo sapiens, UniProt Q16832); conditions: kinase DDR2, ATP 0,1 µM, singlicate
T17 construct: purchased Reaction Biology (assay service)
T17 sequence (Q16832 22-855): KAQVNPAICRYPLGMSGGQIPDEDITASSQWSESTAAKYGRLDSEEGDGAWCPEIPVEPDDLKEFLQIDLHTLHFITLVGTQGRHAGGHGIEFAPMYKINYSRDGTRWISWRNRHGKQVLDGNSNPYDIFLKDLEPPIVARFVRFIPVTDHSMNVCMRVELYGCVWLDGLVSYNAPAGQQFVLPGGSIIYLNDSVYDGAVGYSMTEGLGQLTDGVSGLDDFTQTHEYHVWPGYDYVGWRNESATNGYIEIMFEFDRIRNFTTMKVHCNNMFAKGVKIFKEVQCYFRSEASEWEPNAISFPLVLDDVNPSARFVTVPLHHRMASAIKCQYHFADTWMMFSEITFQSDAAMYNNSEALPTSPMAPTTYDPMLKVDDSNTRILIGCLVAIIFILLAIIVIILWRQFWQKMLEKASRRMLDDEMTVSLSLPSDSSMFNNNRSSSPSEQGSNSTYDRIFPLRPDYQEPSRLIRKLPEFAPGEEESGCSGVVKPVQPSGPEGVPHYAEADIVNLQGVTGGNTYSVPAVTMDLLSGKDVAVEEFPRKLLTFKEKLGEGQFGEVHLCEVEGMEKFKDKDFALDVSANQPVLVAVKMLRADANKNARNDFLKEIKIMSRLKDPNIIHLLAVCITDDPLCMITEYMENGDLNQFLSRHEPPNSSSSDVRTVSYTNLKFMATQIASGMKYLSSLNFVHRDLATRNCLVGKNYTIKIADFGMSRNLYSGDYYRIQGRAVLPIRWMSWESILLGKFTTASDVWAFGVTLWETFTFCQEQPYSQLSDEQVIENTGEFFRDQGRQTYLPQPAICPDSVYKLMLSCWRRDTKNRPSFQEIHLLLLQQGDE
Protocol: as §1

[18] = target: T18, 350 wild-type kinases (Homo sapiens, UniProt Q8IU85); conditions: kinase CAMK1D, ATP 0,3 µM, singlicate
T18 construct: purchased Reaction Biology (assay service)
Protocol: as §1

[19] = target: T19, 350 wild-type kinases (Homo sapiens, UniProt Q8IWQ3); conditions: kinase BRSK2, ATP 1 µM, singlicate
T19 construct: purchased Reaction Biology (assay service)
Protocol: as §1

[20] = target: T20, 350 wild-type kinases (Homo sapiens, UniProt Q8IZL9); conditions: singlicate; for Residual activity (% of control), CDK20/CycH: kinase CDK20/CycH, ATP 0,1 µM; for Residual activity (% of control), CDK20/CycT1: kinase CDK20/CycT1, ATP 1 µM
T20 construct: purchased Reaction Biology (assay service)
T20 sequence (Q8IZL9 whole entry): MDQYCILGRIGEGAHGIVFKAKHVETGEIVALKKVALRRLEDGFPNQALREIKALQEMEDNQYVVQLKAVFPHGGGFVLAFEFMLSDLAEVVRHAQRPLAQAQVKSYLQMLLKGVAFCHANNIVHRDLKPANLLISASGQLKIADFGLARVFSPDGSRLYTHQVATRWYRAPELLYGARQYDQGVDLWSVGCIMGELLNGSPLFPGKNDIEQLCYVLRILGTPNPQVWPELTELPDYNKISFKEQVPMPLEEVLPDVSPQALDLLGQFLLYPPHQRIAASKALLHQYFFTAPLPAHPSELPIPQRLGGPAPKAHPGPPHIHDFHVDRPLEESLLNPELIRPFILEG
Protocol: as §1

[21] = target: T21, 350 wild-type kinases (Homo sapiens, UniProt Q8TDC3); conditions: kinase BRSK1, ATP 1 µM, singlicate
T21 construct: purchased Reaction Biology (assay service)
T21 sequence (Q8TDC3 whole entry): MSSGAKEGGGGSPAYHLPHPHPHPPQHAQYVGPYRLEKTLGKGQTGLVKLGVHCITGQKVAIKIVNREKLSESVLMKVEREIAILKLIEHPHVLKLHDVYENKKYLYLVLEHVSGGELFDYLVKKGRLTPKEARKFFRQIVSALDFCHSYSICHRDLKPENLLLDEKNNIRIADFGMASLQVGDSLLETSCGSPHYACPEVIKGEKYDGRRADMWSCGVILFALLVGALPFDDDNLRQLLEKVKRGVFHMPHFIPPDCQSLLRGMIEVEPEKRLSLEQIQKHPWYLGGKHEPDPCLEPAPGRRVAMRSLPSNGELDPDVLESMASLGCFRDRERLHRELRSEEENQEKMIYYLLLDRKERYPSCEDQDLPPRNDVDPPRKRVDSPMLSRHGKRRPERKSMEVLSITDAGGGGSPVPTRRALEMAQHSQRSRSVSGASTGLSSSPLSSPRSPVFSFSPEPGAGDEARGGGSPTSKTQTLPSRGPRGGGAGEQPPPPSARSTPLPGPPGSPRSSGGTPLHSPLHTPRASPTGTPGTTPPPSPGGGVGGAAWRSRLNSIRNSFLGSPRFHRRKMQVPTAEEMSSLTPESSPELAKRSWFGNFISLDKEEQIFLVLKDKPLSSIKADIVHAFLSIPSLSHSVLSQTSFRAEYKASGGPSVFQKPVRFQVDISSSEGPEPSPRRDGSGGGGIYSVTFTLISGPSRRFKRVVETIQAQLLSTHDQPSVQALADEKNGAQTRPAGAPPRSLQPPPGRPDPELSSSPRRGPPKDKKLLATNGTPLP
Protocol: as §1

[22] = target: T22, 350 wild-type kinases (Homo sapiens, UniProt Q96RR4); conditions: kinase CAMKK2, ATP 3 µM, singlicate
T22 construct: purchased Reaction Biology (assay service)
T22 sequence (Q96RR4 whole entry): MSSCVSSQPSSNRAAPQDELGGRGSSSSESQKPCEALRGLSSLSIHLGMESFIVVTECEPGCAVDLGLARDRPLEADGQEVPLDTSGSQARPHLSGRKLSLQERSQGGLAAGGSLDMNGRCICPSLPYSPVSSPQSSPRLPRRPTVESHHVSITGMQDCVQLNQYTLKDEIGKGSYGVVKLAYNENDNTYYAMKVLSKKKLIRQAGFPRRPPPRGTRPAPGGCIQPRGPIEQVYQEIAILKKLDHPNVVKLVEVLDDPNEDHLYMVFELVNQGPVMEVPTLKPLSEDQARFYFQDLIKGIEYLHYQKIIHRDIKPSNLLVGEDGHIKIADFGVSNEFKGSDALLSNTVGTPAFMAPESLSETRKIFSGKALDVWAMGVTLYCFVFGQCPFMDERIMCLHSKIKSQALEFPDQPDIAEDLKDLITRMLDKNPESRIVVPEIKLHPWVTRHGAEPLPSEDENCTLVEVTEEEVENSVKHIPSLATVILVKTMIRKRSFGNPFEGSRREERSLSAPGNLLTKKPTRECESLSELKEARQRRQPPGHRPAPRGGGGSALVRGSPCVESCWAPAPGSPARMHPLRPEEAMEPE
Protocol: as §1

[23] = target: T23, 350 wild-type kinases (Homo sapiens, UniProt Q9NYV4); conditions: kinase CDK12/CycK, ATP 0,3 µM, singlicate
T23 construct: purchased Reaction Biology (assay service)
Protocol: as §1

CCSc1nc(NC)c2c(-c3cccc(NC(=O)Nc4cc(C(C)(C)C)nn4-c4ccc(C)cc4)c3)c[nH]c2n1 [Compound 32]
Residual activity (% of control), BMPR1B ([1]; Assay Conc. 1.0E-05 M): 102 % of control | Residual activity (% of control), BMPR1B ([1]; Assay Conc. 1.0E-06 M): 109 % of control | Residual activity (% of control), CDC7/DBF4 ([2]; Assay Conc. 1.0E-05 M): 50 % of control | Residual activity (% of control), CDC7/DBF4 ([2]; Assay Conc. 1.0E-06 M): 89 % of control | Residual activity (% of control), CHK1 ([3]; Assay Conc. 1.0E-05 M): 72 % of control | Residual activity (% of control), CHK1 ([3]; Assay Conc. 1.0E-06 M): 110 % of control | Residual activity (% of control), ARK5 ([4]; Assay Conc. 1.0E-05 M): 99 % of control | Residual activity (% of control), ARK5 ([4]; Assay Conc. 1.0E-06 M): 105 % of control | Residual activity (% of control), ACVR2A ([5]; Assay Conc. 1.0E-05 M): 92 % of control | Residual activity (% of control), ACVR2A ([5]; Assay Conc. 1.0E-06 M): 102 % of control | Residual activity (% of control), AXL ([6]; Assay Conc. 1.0E-05 M): 59 % of control | Residual activity (% of control), AXL ([6]; Assay Conc. 1.0E-06 M): 94 % of control | Residual activity (% of control), AKT1 ([7]; Assay Conc. 1.0E-05 M): 91 % of control | Residual activity (% of control), AKT1 ([7]; Assay Conc. 1.0E-06 M): 103 % of control | Residual activity (% of control), AKT2 ([8]; Assay Conc. 1.0E-05 M): 88 % of control | Residual activity (% of control), AKT2 ([8]; Assay Conc. 1.0E-06 M): 117 % of control | Residual activity (% of control), COT ([9]; Assay Conc. 1.0E-05 M): 69 % of control | Residual activity (% of control), COT ([9]; Assay Conc. 1.0E-06 M): 96 % of control | Residual activity (% of control), CK1alpha1 ([10]; Assay Conc. 1.0E-05 M): 98 % of control | Residual activity (% of control), CK1alpha1 ([10]; Assay Conc. 1.0E-06 M): 108 % of control | Residual activity (% of control), CLK1 ([11]; Assay Conc. 1.0E-05 M): 54 % of control | Residual activity (% of control), CLK1 ([11]; Assay Conc. 1.0E-06 M): 86 % of control | Residual activity (% of control), CK1gamma2 ([12]; Assay Conc. 1.0E-05 M): 88 % of control | Residual activity (% of control), CK1gamma2 ([12]; Assay Conc. 1.0E-06 M): 102 % of control | Residual activity (% of control), CDK3/CycC ([13]; Assay Conc. 1.0E-05 M): 65 % of control | Residual activity (% of control), CDK3/CycC ([13]; Assay Conc. 1.0E-06 M): 106 % of control | Residual activity (% of control), CDK3/CycE1 ([13]; Assay Conc. 1.0E-05 M): 75 % of control | Residual activity (% of control), CDK3/CycE1 ([13]; Assay Conc. 1.0E-06 M): 115 % of control | Residual activity (% of control), BTK ([14]; Assay Conc. 1.0E-05 M): 37 % of control | Residual activity (% of control), BTK ([14]; Assay Conc. 1.0E-06 M): 80 % of control | Residual activity (% of control), CDK18/CycY ([15]; Assay Conc. 1.0E-05 M): 73 % of control | Residual activity (% of control), CDK18/CycY ([15]; Assay Conc. 1.0E-06 M): 110 % of control | Residual activity (% of control), CAMK2G ([16]; Assay Conc. 1.0E-05 M): 122 % of control | Residual activity (% of control), CAMK2G ([16]; Assay Conc. 1.0E-06 M): 106 % of control | Residual activity (% of control), DDR2 ([17]; Assay Conc. 1.0E-05 M): 20 % of control | Residual activity (% of control), DDR2 ([17]; Assay Conc. 1.0E-06 M): 79 % of control | Residual activity (% of control), CAMK1D ([18]; Assay Conc. 1.0E-05 M): 101 % of control | Residual activity (% of control), CAMK1D ([18]; Assay Conc. 1.0E-06 M): 113 % of control | Residual activity (% of control), BRSK2 ([19]; Assay Conc. 1.0E-05 M): 84 % of control | Residual activity (% of control), BRSK2 ([19]; Assay Conc. 1.0E-06 M): 103 % of control | Residual activity (% of control), CDK20/CycH ([20]; Assay Conc. 1.0E-05 M): 87 % of control | Residual activity (% of control), CDK20/CycH ([20]; Assay Conc. 1.0E-06 M): 103 % of control | Residual activity (% of control), CDK20/CycT1 ([20]; Assay Conc. 1.0E-05 M): 84 % of control | Residual activity (% of control), CDK20/CycT1 ([20]; Assay Conc. 1.0E-06 M): 99 % of control | Residual activity (% of control), BRSK1 ([21]; Assay Conc. 1.0E-05 M): 89 % of control | Residual activity (% of control), BRSK1 ([21]; Assay Conc. 1.0E-06 M): 101 % of control | Residual activity (% of control), CAMKK2 ([22]; Assay Conc. 1.0E-05 M): 85 % of control | Residual activity (% of control), CAMKK2 ([22]; Assay Conc. 1.0E-06 M): 119 % of control | Residual activity (% of control), CDK12/CycK ([23]; Assay Conc. 1.0E-05 M): 87 % of control | Residual activity (% of control), CDK12/CycK ([23]; Assay Conc. 1.0E-06 M): 99 % of control
